The record followed here is ChEMBL document CHEMBL4382249, “1-Arylsulfonyl indoline-benzamides as a new antitubulin agents, with inhibition of histone deacetylase” (Eur J Med Chem, 2019).

The term viability denotes a read-out of living cells in per cent, often relative to untreated cells. Broadly, the inhibition is how much of the control response was suppressed. As usually defined, the IC50 is the concentration at which inhibition is half-maximal.

Structures are written as SMILES.

For data set [1], the system named is BJAB. As to the kind of experiment: Growth inhibition of human BJAB cells assessed as cell viability at 10 nM after 48 hrs by MTT assay (reference value: 100%).
The target in the next data set is Tubulin (Bos taurus) (UniProt Q6B856+Q862L2+Q862F3). Conditions: at 1 µM; call rule not given here.
The next data set has as its target Histone deacetylase 4 (Homo sapiens, UniProt P56524). As to the kind of experiment: Inhibition of human HDAC4 using fluorogenic p53-derived peptide RHKK(Ac) as substrate by fluorescence assay.
In another data set the target is Histone deacetylase 1 (Homo sapiens, UniProt Q13547). Description: Inhibition of human HDAC1 using RHKKAc as substrate by fluorescence assay.
Chain of Histone deacetylase 1 (Q13547 whole entry): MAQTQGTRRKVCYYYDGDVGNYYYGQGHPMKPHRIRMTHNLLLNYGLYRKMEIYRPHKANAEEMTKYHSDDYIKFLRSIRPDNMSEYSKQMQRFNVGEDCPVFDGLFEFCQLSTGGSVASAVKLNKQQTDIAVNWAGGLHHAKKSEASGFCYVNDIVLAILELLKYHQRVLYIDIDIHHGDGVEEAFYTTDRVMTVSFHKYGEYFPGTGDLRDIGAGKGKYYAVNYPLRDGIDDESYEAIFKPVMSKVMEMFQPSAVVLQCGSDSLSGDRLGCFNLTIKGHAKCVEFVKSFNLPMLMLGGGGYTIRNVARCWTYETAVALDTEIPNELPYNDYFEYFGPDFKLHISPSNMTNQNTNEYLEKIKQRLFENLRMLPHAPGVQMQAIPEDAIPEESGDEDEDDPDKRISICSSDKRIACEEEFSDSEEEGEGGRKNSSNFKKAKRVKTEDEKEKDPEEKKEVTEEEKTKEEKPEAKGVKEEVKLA
Data set [2] in a line: Growth inhibition of human KB-7d cells after 48 hrs by SRB assay. It counts as functional. Conditions: KB7D. In general terms: In SRB staining, fixed cells bind dye roughly in proportion to their protein.
The subject of data set [3] is BJAB. As to the kind of experiment: Growth inhibition of human BJAB cells assessed as cell viability at 80 nM after 48 hrs by MTT assay (reference value: 100%). For orientation: Tetrazolium assays rely on reduction of a dye to a coloured formazan, in cell work by metabolically active cells.
For a further data set, the target named is Tubulin (Bos taurus, UniProt Q6B856+Q862L2+Q862F3).
The target in a further data set is T1, Histone deacetylase 7 (Homo sapiens, UniProt Q8WUI4).
T1 sequence (Q8WUI4 whole entry): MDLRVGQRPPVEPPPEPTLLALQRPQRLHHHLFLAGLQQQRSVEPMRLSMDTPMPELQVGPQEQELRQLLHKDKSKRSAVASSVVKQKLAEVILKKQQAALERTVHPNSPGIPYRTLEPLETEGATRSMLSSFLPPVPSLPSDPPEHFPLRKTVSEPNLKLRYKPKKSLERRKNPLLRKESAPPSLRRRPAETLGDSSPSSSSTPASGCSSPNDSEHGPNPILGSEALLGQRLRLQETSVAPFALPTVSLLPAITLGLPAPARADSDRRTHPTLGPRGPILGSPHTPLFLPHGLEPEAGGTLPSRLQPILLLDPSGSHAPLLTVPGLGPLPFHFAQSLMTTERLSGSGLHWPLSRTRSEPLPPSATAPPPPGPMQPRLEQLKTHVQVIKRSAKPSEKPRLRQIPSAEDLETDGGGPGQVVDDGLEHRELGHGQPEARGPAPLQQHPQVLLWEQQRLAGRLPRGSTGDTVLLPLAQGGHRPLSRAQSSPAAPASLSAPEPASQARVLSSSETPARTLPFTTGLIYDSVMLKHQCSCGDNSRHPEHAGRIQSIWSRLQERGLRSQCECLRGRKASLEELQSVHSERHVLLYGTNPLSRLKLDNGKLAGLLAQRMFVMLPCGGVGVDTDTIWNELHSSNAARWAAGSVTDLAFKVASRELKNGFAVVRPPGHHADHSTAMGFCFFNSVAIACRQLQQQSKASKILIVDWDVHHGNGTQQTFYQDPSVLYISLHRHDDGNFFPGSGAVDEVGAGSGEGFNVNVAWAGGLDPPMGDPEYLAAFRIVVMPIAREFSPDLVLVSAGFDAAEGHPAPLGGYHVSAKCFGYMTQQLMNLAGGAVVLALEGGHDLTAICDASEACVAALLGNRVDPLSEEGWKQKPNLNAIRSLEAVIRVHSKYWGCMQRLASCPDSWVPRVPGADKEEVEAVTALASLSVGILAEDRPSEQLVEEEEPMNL
Description: Inhibition of human HDAC7 using fluorogenic p53 (379-382) peptide RHKK(Ac) as substrate by fluorescence assay.

The test system of data set [4] is BJAB. As to the kind of experiment: Growth inhibition of human BJAB cells after 48 hrs by MTT assay.
For data set [5], the target named is T2, Polyamine deacetylase HDAC10 (Homo sapiens, UniProt Q969S8).
T2 sequence (Q969S8 whole entry): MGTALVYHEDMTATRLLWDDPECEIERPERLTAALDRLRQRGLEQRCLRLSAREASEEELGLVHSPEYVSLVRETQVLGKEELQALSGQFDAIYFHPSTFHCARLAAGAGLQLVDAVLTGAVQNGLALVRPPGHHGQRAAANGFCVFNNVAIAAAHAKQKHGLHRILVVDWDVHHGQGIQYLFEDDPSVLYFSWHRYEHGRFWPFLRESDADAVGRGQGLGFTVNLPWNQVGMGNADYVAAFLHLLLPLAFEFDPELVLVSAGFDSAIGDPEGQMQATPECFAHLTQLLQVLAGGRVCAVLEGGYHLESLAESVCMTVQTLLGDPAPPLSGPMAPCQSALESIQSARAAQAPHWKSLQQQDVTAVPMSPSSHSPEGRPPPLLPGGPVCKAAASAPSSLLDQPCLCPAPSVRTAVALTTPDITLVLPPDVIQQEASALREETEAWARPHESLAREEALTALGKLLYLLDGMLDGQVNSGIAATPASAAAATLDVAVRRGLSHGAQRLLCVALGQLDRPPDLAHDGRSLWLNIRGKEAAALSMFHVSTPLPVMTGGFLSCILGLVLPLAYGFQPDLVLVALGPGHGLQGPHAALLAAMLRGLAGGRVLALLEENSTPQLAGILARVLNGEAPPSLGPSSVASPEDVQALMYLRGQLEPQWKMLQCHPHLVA
As to the kind of experiment: Inhibition of human HDAC10 using RHKKAc as substrate by fluorescence assay. The settings on record: read-out: IC50.

Data set [6] is described as follows: Toxicity in NOD/SCID mouse xenografted with human BJAB cells assessed as change in body weight at 50 mg/kg, iv daily for 5 days/week measured on day 25 post first dose. The settings on record: in vivo, 120 h. It counts as organism-based. In general terms: A xenograft is tissue or cells of one species grown in another, often human tumour cells in immunodeficient mice.

For a further data set, the target named is Histone deacetylase 2 (Homo sapiens, UniProt Q92769). As to the kind of experiment: Inhibition of human HDAC2 using RHKKAc as substrate by fluorescence assay.
Chain of Histone deacetylase 2 (Q92769 whole entry): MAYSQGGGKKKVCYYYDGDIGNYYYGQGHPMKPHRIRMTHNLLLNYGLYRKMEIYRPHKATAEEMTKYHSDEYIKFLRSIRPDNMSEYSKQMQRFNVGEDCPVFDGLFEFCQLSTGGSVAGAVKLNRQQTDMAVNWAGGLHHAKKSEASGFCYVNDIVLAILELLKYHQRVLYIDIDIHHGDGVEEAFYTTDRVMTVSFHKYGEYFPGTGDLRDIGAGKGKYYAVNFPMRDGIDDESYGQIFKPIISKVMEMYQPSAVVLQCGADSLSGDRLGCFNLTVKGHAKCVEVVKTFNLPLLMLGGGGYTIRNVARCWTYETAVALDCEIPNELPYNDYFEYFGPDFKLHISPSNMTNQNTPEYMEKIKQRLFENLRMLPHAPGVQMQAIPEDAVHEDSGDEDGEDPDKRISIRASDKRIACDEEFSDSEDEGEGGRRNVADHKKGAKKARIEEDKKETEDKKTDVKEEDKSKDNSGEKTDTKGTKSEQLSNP
A further data set relates to KB. As to the kind of experiment: Growth inhibition of human KB cells after 48 hrs by SRB assay. It counts as functional, cell-based.
A further data set concerns the target T3, Histone deacetylase 8 (Homo sapiens, UniProt Q9BY41).
T3 sequence (Q9BY41 whole entry): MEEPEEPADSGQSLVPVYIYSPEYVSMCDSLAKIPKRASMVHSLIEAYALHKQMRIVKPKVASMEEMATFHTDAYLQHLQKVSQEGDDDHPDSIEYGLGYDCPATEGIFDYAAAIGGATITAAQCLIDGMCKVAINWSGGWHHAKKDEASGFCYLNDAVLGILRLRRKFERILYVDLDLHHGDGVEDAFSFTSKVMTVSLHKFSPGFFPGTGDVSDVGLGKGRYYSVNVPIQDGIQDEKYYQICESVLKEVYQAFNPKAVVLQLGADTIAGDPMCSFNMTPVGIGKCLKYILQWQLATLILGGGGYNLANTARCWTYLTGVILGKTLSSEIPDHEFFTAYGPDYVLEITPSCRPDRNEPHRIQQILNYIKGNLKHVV

Data set [7] is described as follows: Growth inhibition of human KB-VIN10 cells after 48 hrs by SRB assay. Conditions: KB-VIN10, 48 h. It counts as functional.
The subject of data set [8] is BJAB. As to the kind of experiment: Growth inhibition of human BJAB cells assessed as cell viability at 40 nM after 48 hrs by MTT assay (reference value: 100%).

Chain of Histone deacetylase 4 (P56524 whole entry): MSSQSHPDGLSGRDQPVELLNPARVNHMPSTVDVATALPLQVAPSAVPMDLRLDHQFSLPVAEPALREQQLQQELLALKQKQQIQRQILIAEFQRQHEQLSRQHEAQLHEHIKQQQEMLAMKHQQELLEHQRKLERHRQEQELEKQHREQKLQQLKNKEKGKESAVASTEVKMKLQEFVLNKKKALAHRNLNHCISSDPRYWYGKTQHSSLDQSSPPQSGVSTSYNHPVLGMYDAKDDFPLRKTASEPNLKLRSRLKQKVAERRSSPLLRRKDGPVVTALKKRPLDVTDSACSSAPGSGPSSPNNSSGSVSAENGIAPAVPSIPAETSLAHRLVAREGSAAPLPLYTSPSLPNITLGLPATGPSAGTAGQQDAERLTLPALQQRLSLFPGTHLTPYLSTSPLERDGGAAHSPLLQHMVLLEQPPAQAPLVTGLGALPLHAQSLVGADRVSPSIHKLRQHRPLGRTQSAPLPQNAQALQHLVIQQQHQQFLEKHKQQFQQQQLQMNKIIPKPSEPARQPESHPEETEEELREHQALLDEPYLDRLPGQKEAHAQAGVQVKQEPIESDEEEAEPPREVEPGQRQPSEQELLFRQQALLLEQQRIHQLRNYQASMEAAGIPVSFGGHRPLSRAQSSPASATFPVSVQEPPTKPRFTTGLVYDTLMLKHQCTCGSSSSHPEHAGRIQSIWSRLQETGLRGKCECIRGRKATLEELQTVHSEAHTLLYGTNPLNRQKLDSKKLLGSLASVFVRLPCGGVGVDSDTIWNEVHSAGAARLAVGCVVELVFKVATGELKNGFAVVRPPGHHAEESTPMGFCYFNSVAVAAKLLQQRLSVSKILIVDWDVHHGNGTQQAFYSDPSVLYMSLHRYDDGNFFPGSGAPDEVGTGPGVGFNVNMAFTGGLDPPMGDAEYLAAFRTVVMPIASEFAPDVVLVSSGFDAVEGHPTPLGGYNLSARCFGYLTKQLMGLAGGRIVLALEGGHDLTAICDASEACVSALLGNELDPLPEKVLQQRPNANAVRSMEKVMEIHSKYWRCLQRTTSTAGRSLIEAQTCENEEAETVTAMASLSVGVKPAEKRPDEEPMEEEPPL

On to `COc1ccc(S(=O)(=O)N2CCc3cccc(NCc4ccc(C(=O)Nc5ccccc5N)cc4)c32)cc1`, for which the viability at 0.01 µM with BJAB [1] came out at 69%. Also, the inhibition on Tubulin (Bos taurus) was determined as 69.9%. Further, the IC50 result is “Not Active” on Histone deacetylase 4; 221 nM against Histone deacetylase 1; 46.6 nM in data set [2]; 1.1 µM at Tubulin; “Not Active” at Histone deacetylase 7; 40 nM in the data set with BJAB [4]. Moreover, the IC50 in data set [5] is 10 µM; at Histone deacetylase 2 it was 662 nM; in the data set on KB it was 49 nM; on Histone deacetylase 8, “Not Active”; in data set [7], 64.7 nM. Also, the viability at 0.08 µM in the data set on BJAB [3] was found to be 22%. For the same compound, the Activity entry in data set [6] is reported as “Non-Toxic”. For the same compound, the viability at 0.04 µM in the data set with BJAB [8] was 50%.
